Results from patent US20190367516A1 (Bayer Pharma Aktiengesellschaft, priority 2015, published 2019).
Read-outs that look alike come from different tables or passages of the source.

What was measured:
[1] = target: T1, human M2 receptor (Homo sapiens, UniProt P08172); details: for Emax: read-out: Efficiency, boosting of the acetylcholine effect at EC20 acetylcholine concentration; for Efficiency: boosting of the acetylcholine effect at EC20 acetylcholine concentration
T1 sequence (P08172 1-466): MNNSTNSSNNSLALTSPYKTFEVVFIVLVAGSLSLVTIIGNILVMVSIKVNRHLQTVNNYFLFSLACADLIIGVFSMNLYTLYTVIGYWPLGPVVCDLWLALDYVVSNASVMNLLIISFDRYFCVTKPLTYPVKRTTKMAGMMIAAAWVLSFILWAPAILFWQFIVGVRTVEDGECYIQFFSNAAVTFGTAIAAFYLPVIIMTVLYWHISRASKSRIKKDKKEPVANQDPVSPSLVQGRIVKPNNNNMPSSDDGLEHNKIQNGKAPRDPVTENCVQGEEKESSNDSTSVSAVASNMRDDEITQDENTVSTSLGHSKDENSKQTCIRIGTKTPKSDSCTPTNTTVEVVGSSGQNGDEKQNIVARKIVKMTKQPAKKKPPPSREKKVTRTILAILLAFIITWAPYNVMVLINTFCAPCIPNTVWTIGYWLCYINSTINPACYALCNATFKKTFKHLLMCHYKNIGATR

[2] = target: T1, human M2 receptor; assay type: cell-based; details: α >1 = positive cooperativity
[3] = Receptor activity EC50, M2-GIRK1/4 activation test, acetylcholine at EC20, allosteric potency, in some cases mean values from two or more determinations
[4] = shift in the acetylcholine dose-response curve (Allosteric EC50 shift, GraphPad PRISM)
[5] = Receptor activity EC50, allosteric potency at EC20 acetylcholine, M2-GIRK1/4 reporter cells, in some cases mean of two or more determinations
[6] = shift of acetylcholine dose-response curve (Allosteric EC50 shift)
[7] = read-out: Receptor activity EC50, allosteric potency at EC20 acetylcholine, M2-GIRK1/4 reporter cells, in some cases mean of two or more determinations

Row | EC50 [1, 3] | Cooperativity (alpha factor) [2, 4] | EC50 [1, 5] | Emax ([1]; M2-GIRK1/4 reporter cells) | Cooperativity (alpha factor) [2, 6] | Efficiency ([1]; M2-GIRK1/4 reporter cells) | EC50 [1, 7] | SMILES
1 | 112 nM | 42 | – | – | – | – | – | O=C(NC(c1c(F)cccc1F)C(F)(F)F)c1cn(-c2ccc(F)cc2F)c2nc(N3C[C@@H](O)CC3=O)ccc2c1=O (single isomer, unassigned) [Example 245]
2 | 23 nM | 53 | – | – | – | – | – | O=C(NC(c1c(F)cccc1F)C(F)(F)F)c1cn(-c2ccc(F)cc2F)c2nc(N3C[C@@H](O)CC3=O)ccc2c1=O (single isomer, unassigned) [Example 246]
3 | 101 nM | 27 | – | – | – | – | – | O=C(NC(c1c(F)cccc1F)C(F)(F)F)c1cn(-c2ccc(F)cc2F)c2nc(N3CCCC(O)C3=O)ccc2c1=O (single isomer, unassigned) [Example 250, 1-(2,4-Difluorophenyl)-N-[1-(2,6-difluorophenyl)-2,2,2-trifluoroethyl]-7-[3-hydroxy-2-oxopiperidin-1-yl]-4-oxo-1,4-dihydro-1,8-naphthyridine-3-carboxamide]
4 | 83 nM | 31 | – | – | – | – | – | O=C(NC(c1c(F)cccc1F)C(F)(F)F)c1cn(-c2ccc(F)cc2F)c2nc(N3CCC(O)CC3=O)ccc2c1=O (single isomer, unassigned) [Example 255, 1-(2,4-Difluorophenyl)-N-[1-(2,6-difluorophenyl)-2,2,2-trifluoroethyl]-7-[4-hydroxy-2-oxopiperidin-1-yl]-4-oxo-1,4-dihydro-1,8-naphthyridine-3-carboxamide]
5 | 34 nM | 44 | – | – | – | – | – | CC[C@@H](NC(=O)c1cn(-c2c(F)cc(F)cc2F)c2nc(N3CCC(O)C3=O)ccc2c1=O)C(F)(F)F (single isomer, unassigned) [Example 281]
6 | 40 nM | 12 | – | – | – | – | – | O=C(NC(c1ccccc1Cl)C(F)(F)F)c1cn(-c2ccccc2F)c2nc(N3CCC(O)C3=O)ccc2c1=O (single isomer, unassigned) [Example 288]
7 | 65 nM | 31 | – | – | – | – | – | CC[C@@H](NC(=O)c1cn(-c2c(F)cccc2F)c2nc(N3CCC(O)C3=O)ccc2c1=O)C(F)(F)F (single isomer, unassigned) [Example 294]
8 | 12 nM | 23 | – | – | – | – | – | CC[C@@H](NC(=O)c1cn(-c2c(F)cccc2F)c2nc(N3CC4CC4(O)C3)ccc2c1=O)C(F)(F)F (single isomer, unassigned) [Example 305]
9 | 52 nM | 21 | – | – | – | – | – | CC[C@@H](NC(=O)c1cn(-c2c(F)cccc2F)c2nc(N3CC4CC4(O)C3)ccc2c1=O)C(F)(F)F (single isomer, unassigned) [Example 306]
10 | 27 nM | 24 | – | – | – | – | – | CC[C@@H](NC(=O)c1cn(-c2ccc(F)cc2F)c2nc(N3CC4CC4(O)C3)ccc2c1=O)C(F)(F)F (single isomer, unassigned) [Example 314]
11 | 38 nM | 25 | – | – | – | – | – | CC[C@@H](NC(=O)c1cn(-c2ccc(F)cc2F)c2nc(N3CC4CC4(O)C3)ccc2c1=O)C(F)(F)F (single isomer, unassigned) [Example 315]
12 | – | – | 40 nM | 96.5% | 11 | – | – | CC[C@H](NC(=O)c1cn(-c2c(F)cc(F)cc2Cl)c2nc(N3C[C@@H](O)CC3=O)ccc2c1=O)C(F)(F)F (single isomer, unassigned) [Example 399]
13 | – | – | 16 nM | – | 34 | 98.0% | – | CCC(COC(F)(F)F)NC(=O)c1cn(-c2c(F)cc(F)cc2F)c2nc(N3C[C@@H](O)CC3=O)ccc2c1=O (single isomer, unassigned) [Example 412]
14 | – | – | 7 nM | – | 15 | 99.0% | – | CC[C@H](NC(=O)c1cn(-c2c(F)cc(F)cc2Cl)c2nc(N3CCC(C)C3=O)ccc2c1=O)C(F)(F)F (single isomer, unassigned) [Example 424]
15 | – | – | 5 nM | – | 9 | 90.5% | – | CC[C@H](NC(=O)c1cn(-c2c(F)cc(F)cc2Cl)c2nc(N3CCC(C)C3=O)ccc2c1=O)C(F)(F)F (single isomer, unassigned) [Example 425]
16 | – | – | 40 nM | 94% | 26 | – | – | CC[C@@H](NC(=O)c1cn(-c2ccc(F)cc2F)c2nc(N3CC(C)NC3=O)ccc2c1=O)C(F)(F)F (single isomer, unassigned) [Example 432]
17 | – | – | 20 nM | 100% | 35 | – | – | O=C(NC(CC(F)(F)F)C1CC1)c1cn(-c2c(F)cc(F)cc2F)c2nc(N3C[C@@H](O)[C@H](O)C3)ccc2c1=O (single isomer, unassigned) [Example 439]
18 | – | – | 19 nM | – | 22 | 97.0% | – | CCC1CCN(c2ccc3c(=O)c(C(=O)N[C@@H](C4CC4)C(F)(F)F)cn(-c4c(F)cc(F)cc4F)c3n2)C(=O)N1 (single isomer, unassigned) [Example 448, N-[(1 S)-1-Cyclopropyl-2,2,2-trifluoroethyl]-7-[4-ethyl-2-oxotetrahydropyrimidin-1(2H)-yl]-4-oxo-1-(2,4,6-trifluorophenyl)-1,4-dihydro-1,8-naphthyridine-3-carboxamide]
19 | – | – | 7 nM | 100% | 28 | – | – | CC[C@@H](COC(F)(F)F)NC(=O)c1cn(-c2c(F)cc(F)cc2F)c2nc(N3C[C@@H](C)NC3=O)ccc2c1=O (single isomer, unassigned) [Example 454]
20 | – | – | 10 nM | – | 17 | 100.0% | – | CC[C@@H](COC(F)(F)F)NC(=O)c1cn(-c2c(F)cc(F)cc2F)c2nc(N3C[C@@H](C)NC3=O)ccc2c1=O (single isomer, unassigned) [Example 455]
21 | – | – | 7 nM | 100% | 57 | – | – | O=C(NC(C1CCC1)C(F)(F)F)c1cn(-c2c(F)cc(F)cc2F)c2nc(N3C[C@@H](O)CC3=O)ccc2c1=O (single isomer, unassigned) [Example 506]
22 | – | – | 6 nM | – | 37 | 98.0% | – | O=C(NC(C1CCC1)C(F)(F)F)c1cn(-c2c(F)cc(F)cc2F)c2nc(N3C[C@@H](O)CC3=O)ccc2c1=O (single isomer, unassigned) [Example 507]
23 | – | – | 6 nM | – | 46 | 94.0% | – | CC(NC(=O)c1cn(-c2c(F)cc(F)cc2F)c2nc(N3C[C@@H](O)CC3=O)ccc2c1=O)(C1CC1)C(F)(F)F (single isomer, unassigned) [Example 510]
24 | – | – | – | – | 30 | 99.0% | 10 nM | O=C(NC(CC(F)(F)F)C1CC1)c1cn(-c2c(F)cc(F)cc2F)c2nc(N3C[C@@H](O)CC3=O)ccc2c1=O (single isomer, unassigned) [Example 514]
25 | – | – | – | – | 72 | 100.0% | 2 nM | CCC(NC(=O)c1cn(-c2c(F)cc(F)cc2F)c2nc(N3C[C@@H](O)CC3=O)ccc2c1=O)C(F)(F)C(F)(F)F (single isomer, unassigned) [Example 521]
26 | – | – | 5 nM | 100% | 61 | – | – | CC(C)C(NC(=O)c1cn(-c2c(F)cc(F)cc2F)c2nc(N3C[C@@H](O)CC3=O)ccc2c1=O)C(F)(F)F (single isomer, unassigned) [Example 527]
